Experimental findings from US8629112B2, “Template-fixed peptidomimetics with CXCR7 modulating activity” (priority 2010, dated 2014) are described below.

Read-outs that look alike come from different tables or passages of the source. Square brackets hold non-standard residues; d marks the D form. Peptide text beside a SMILES is read from it. * marks the point of attachment. Oic = O=C(O)[C@@H]1C[C@@H]2CCCC[C@@H]2N1; 1Nal = N[C@@H](Cc1cccc2ccccc12)C(=O)O; 2Nal = N[C@@H](Cc1ccc2ccccc2c1)C(=O)O; Tiq1c(1S) = O=C(O)[C@H]1NCCc2ccccc21; His(π-Me) = Cn1cncc1C[C@H](N)C(=O)O; cisHyp = O=C(O)[C@@H]1C[C@H](O)CN1; Tic = O=C(O)[C@@H]1Cc2ccccc2CN1; dTic = O=C(O)[C@H]1Cc2ccccc2CN1; dOrn = NCCC[C@@H](N)C(=O)O; Aze = O=C(O)[C@@H]1CCN1; Bn = c1ccc(C*)cc1

The assay has as its target T1, CXCR7 (Homo sapiens, UniProt P25106).
T1 construct: host or cells: CHO (PathHunter CHO-CXCR7 β-arrestin cells)
The experiment in a line: CXCR7 β-arrestin recruitment assay (PathHunter CHO-CXCR7, agonistic assay). The assay is classed as cell-based. Here is the method:
Lyophilized peptides were weighed on a Microbalance (Mettler MX5) and dissolved in DMSO to a final concentration of 10 mM unless otherwise stated. Stock solutions were kept at +4° C., and protected from light.
2.2 CXCR7 β-Arrestin Recruitment Assay
The PathHunter CHO-CXCR7 (DiscoverX) assay was performed according to the manufacturer's protocol. In brief, CHO CXCR7 β-arrestin cells were seeded at a density of 5000 cells per well in 40 μl of F12 medium in a 96-half volume well black culture plate and incubated overnight at 37° C. in a humidified atmosphere with 5% CO2. The next day, serial dilutions of PEM compounds have been prepared in DMSO and subsequently diluted in HBSS buffer containing 0.1% BSA.
For agonistic assay, 10 μl of compound solution or a solution of stromal cell-derived factor-1 (SDF-1) as positive control was added to the cells with a final DMSO concentration of 1% (v/v). The plate was incubated for 90 min at 37° C. in 5% CO2 incubator with gentle shaking (300 rpm) before addition of 40 ul of detection reagent per well. Reaction was developed 90 min at room temperature in the dark with shaking, and chemiluminescence was measured with a Topcount (Perkin Elmer) luminescence counter.
A general note: Arrestin recruitment assays detect the binding of arrestin to an activated receptor.

Setting [1] is: CHO CXCR7 β-arrestin cells, agonistic assay, 90 min at 37° C., chemiluminescence, read-out: β-Arrestin EC50.

T1 sequence (P25106 whole entry): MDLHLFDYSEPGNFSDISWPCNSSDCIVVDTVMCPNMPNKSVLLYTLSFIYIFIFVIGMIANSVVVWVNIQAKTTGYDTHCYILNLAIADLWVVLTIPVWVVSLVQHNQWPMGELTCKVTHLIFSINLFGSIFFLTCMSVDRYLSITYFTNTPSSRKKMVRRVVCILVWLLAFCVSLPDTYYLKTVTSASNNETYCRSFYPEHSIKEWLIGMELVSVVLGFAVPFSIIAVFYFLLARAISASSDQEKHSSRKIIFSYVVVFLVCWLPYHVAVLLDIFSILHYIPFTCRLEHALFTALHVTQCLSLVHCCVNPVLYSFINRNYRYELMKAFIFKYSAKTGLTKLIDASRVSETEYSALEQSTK

By EC50 is commonly meant the midpoint of the concentration-response curve. Turning to `C[C@@H]1NC(=O)[C@@H]2Cc3ccccc3CN2C(=O)[C@H]2CCCN2C(=O)[C@H](CCCNC(=N)N)NC(=O)[C@H](Cc2c[nH]c3ccccc23)NC(=O)[C@@H](Cc2ccccc2)NC1=O` [Ex. 1, cyclo(-Ala-^DPhe-Trp-Arg-^DPro-Tic-)] (cyclo(A[dF]WR[dP][Tic])), under setting [1], the EC50 amounted to 163 ± 40.9 nM.
On the same count and under the same terms, next, `N=C(N)NCCC[C@@H]1NC(=O)[C@H](Cc2c[nH]c3ccccc23)NC(=O)[C@@H](Cc2ccccc2)NC(=O)[C@H](Cc2ccccc2)NC(=O)[C@@H]2Cc3ccccc3CN2C(=O)[C@H]2CCCN2C1=O` [Ex. 2, cyclo(-Phe-^DPhe-Trp-Arg-^DPro-Tic-)] (cyclo(F[dF]WR[dP][Tic])): 22.5 ± 13.7 nM; `Cn1cncc1C[C@@H]1NC(=O)[C@@H]2Cc3ccccc3CN2C(=O)[C@H]2CCCN2C(=O)[C@H](CCCNC(=N)N)NC(=O)[C@H](Cc2c[nH]c3ccccc23)NC(=O)[C@@H](Cc2ccccc2)NC1=O` [Ex. 4, cyclo(-His(Me)-^DPhe-Trp-Arg-^DPro-Tic-)] (cyclo([His(π-Me)][dF]WR[dP][Tic])): 32.5 ± 3.9 nM; `N=C(N)NCCC[C@@H]1NC(=O)[C@H](Cc2c[nH]c3ccccc23)NC(=O)[C@@H](Cc2c[nH]c3ccccc23)NC(=O)[C@H](Cc2c[nH]c3ccccc23)NC(=O)[C@@H]2Cc3ccccc3CN2C(=O)[C@H]2CCCN2C1=O` [Ex. 10, cyclo(-Trp-^DTrp-Trp-Arg-^DPro-Tic-)] (cyclo(R[dP][Tic]W[dW]W)): 64.9 ± 113 nM.
Take `O=C1N[C@@H](Cc2c[nH]cn2)C(=O)N2CCC[C@@H]2C(=O)N2Cc3ccccc3C[C@H]2C(=O)N[C@@H](Cc2c[nH]c3ccccc23)C(=O)N[C@H](Cc2ccccc2)C(=O)N[C@H]1Cc1c[nH]c2ccccc12` [Ex. 23, cyclo(-Trp-^DPhe-Trp-His-^DPro-Tic-)] (cyclo(H[dP][Tic]W[dF]W)): the EC50 under setting [1] is 18.3 ± 17.6 nM.
Turning to `N=C(N)NCCC[C@@H]1NC(=O)[C@H](Cc2c[nH]c3ccccc23)NC(=O)[C@@H](Cc2ccccc2)NC(=O)[C@H](Cc2c[nH]c3ccccc23)NC(=O)[C@@H]2c3ccccc3CCN2C(=O)[C@H]2CCCN2C1=O` [Ex. 25, cyclo(-Trp-^DPhe-Trp-Arg-^DPro-Tiq-)] (cyclo(R[dP][Tiq1c(1S)]W[dF]W)), under setting [1], the EC50 worked out at 0.4 nM.
The same measure, in the same setting: next, `N=C(N)NCCC[C@@H]1NC(=O)[C@H](Cc2c[nH]c3ccccc23)NC(=O)[C@@H](Cc2ccccc2)NC(=O)[C@H](Cc2c[nH]c3ccccc23)NC(=O)[C@@H]2C[C@@H]3CCCC[C@@H]3N2C(=O)[C@H]2CCCN2C1=O` [Ex. 26, cyclo(-Trp-^DPhe-Trp-Arg-^DPro-Oic-)] (cyclo([Oic]W[dF]WR[dP])): 0.8 ± 0.5 nM; `N=C(N)NCCC[C@@H]1NC(=O)[C@H](Cc2c[nH]c3ccccc23)NC(=O)[C@@H](Cc2ccccc2)NC(=O)[C@H](Cc2c[nH]c3ccccc23)NC(=O)[C@@H]2C[C@H](OCc3ccccc3)CN2C(=O)[C@H]2CCCN2C1=O` [Ex. 27, cyclo(-Trp-^DPhe-Trp-Arg-^DPro-(4S)-Hyp(Bn)-)] (cyclo(R[dP][cisHyp](Bn)W[dF]W)): 1.7 ± 1.1 nM; `N=C(N)NCCC[C@@H]1NC(=O)[C@H](Cc2c[nH]c3ccccc23)NC(=O)[C@@H](Cc2ccccc2)NC(=O)[C@H](Cc2c[nH]c3ccccc23)NC(=O)[C@@H]2CCCN2C(=O)[C@H]2Cc3ccccc3CN2C1=O` [Ex. 40, cyclo(-Trp-^DPhe-Trp-Arg-^DTic-Pro-)] (cyclo(PW[dF]WR[dTic])): 83.6 ± 22.7 nM.
Regarding `CC[C@H](C)[C@@H]1NC(=O)[C@@H](Cc2c[nH]cn2)NC(=O)[C@H](Cc2cccc3ccccc23)NC(=O)[C@@H]2CCN2C(=O)[C@H]2CCCN2C(=O)[C@H](CCCNC(=N)N)NC1=O` [Ex. 42, cyclo(-1Nal-^DHis-Ile-Arg-^DPro-Azt-)] (cyclo([1Nal][dH]IR[dP][Aze])), under setting [1], the EC50 came out at 85.7 ± 76.6 nM.
For `N=C(N)NCCC[C@@H]1NC(=O)[C@H](Cc2c[nH]c3ccccc23)NC(=O)[C@@H](Cc2ccccc2)NC(=O)[C@H](Cc2c[nH]cn2)NC(=O)[C@@H]2Cc3ccccc3CN2C(=O)[C@H]2CCCN2C1=O` [compound 3, cyclo(-His-^DPhe-Trp-Arg-^DPro-Tic-)] (cyclo(H[dF]WR[dP][Tic])), under setting [1], the EC50 amounted to 32.1 ± 3.9 nM.
`N=C(N)NCCC[C@@H]1NC(=O)[C@H](Cc2c[nH]c3ccccc23)NC(=O)[C@@H](Cc2ccccc2)NC(=O)[C@H](Cc2ccc(O)cc2)NC(=O)[C@@H]2Cc3ccccc3CN2C(=O)[C@H]2CCCN2C1=O` [compound 5, cyclo(-Tyr-^DPhe-Trp-Arg-^DPro-Tic-)] (cyclo(R[dP][Tic]Y[dF]W)): the response was half-maximal at 11.5 ± 9 nM (EC50).
`N=C(N)NCCC[C@@H]1NC(=O)[C@@H]2Cc3ccccc3CN2C(=O)[C@H]2CCCN2C(=O)[C@H](CCCNC(=N)N)NC(=O)[C@H](Cc2c[nH]c3ccccc23)NC(=O)[C@@H](Cc2ccccc2)NC1=O` [compound 6, cyclo(-Arg-^DPhe-Trp-Arg-^DPro-Tic-)] (cyclo(R[dF]WR[dP][Tic])): under setting [1], the EC50 was 12.8 ± 4.5 nM.
The same measure, in the same setting: next, `N=C(N)NCCC[C@@H]1NC(=O)[C@H](Cc2c[nH]c3ccccc23)NC(=O)[C@@H](Cc2ccccc2)NC(=O)[C@H](Cc2cccc3ccccc23)NC(=O)[C@@H]2Cc3ccccc3CN2C(=O)[C@H]2CCCN2C1=O` [compound 7, cyclo(-1Nal-^DPhe-Trp-Arg-^DPro-Tic-)] (cyclo([1Nal][dF]WR[dP][Tic])): 61.6 ± 1.6 nM; `N=C(N)NCCC[C@@H]1NC(=O)[C@H](Cc2c[nH]c3ccccc23)NC(=O)[C@@H](Cc2ccccc2)NC(=O)[C@H](Cc2ccc3ccccc3c2)NC(=O)[C@@H]2Cc3ccccc3CN2C(=O)[C@H]2CCCN2C1=O` [compound 8, cyclo(-2Nal-^DPhe-Trp-Arg-^DPro-Tic-)] (cyclo([2Nal][dF]WR[dP][Tic])): 8.9 ± 5.8 nM; `N=C(N)NCCC[C@@H]1NC(=O)[C@H](Cc2c[nH]c3ccccc23)NC(=O)[C@@H](Cc2ccccc2)NC(=O)[C@H](Cc2c[nH]c3ccccc23)NC(=O)[C@@H]2Cc3ccccc3CN2C(=O)[C@H]2CCCN2C1=O` [compound 9, cyclo(-Trp-^DPhe-Trp-Arg-^DPro-Tic-)] (cyclo(R[dP][Tic]W[dF]W)): 4.8 ± 4.4 nM.
`N=C(N)NCCC[C@@H]1NC(=O)[C@H](Cc2c[nH]c3ccccc23)NC(=O)[C@@H](Cc2c[nH]cn2)NC(=O)[C@H](Cc2c[nH]c3ccccc23)NC(=O)[C@@H]2Cc3ccccc3CN2C(=O)[C@H]2CCCN2C1=O` [compound 11, cyclo(-Trp-^DHis-Trp-Arg-^DPro-Tic-)] (cyclo(R[dP][Tic]W[dH]W)): the EC50 under setting [1] was found to be 204 ± 8.1 nM.
In the case of `N=C(N)NCCC[C@@H]1NC(=O)[C@H](Cc2c[nH]c3ccccc23)NC(=O)[C@@H](CCCNC(=N)N)NC(=O)[C@H](Cc2c[nH]c3ccccc23)NC(=O)[C@@H]2Cc3ccccc3CN2C(=O)[C@H]2CCCN2C1=O` [compound 13, cyclo(-Trp-^DArg-Trp-Arg-^DPro-Tic-)] (cyclo(R[dP][Tic]W[dR]W)), the EC50 under setting [1] came to 128 ± 32.5 nM.
Regarding `N=C(N)NCCC[C@@H]1NC(=O)[C@H](Cc2c[nH]c3ccccc23)NC(=O)[C@@H](CCCN)NC(=O)[C@H](Cc2c[nH]c3ccccc23)NC(=O)[C@@H]2Cc3ccccc3CN2C(=O)[C@H]2CCCN2C1=O` [compound 14, cyclo(-Trp-^DOrn-Trp-Arg-^DPro-Tic-)] (cyclo(R[dP][Tic]W[dOrn]W)), the EC50 under setting [1] turned out to be 111 ± 75.4 nM.
On the same count and under the same terms, in the case of `N=C(N)NCCC[C@@H]1NC(=O)[C@H](Cc2ccccc2)NC(=O)[C@@H](Cc2ccccc2)NC(=O)[C@H](Cc2c[nH]c3ccccc23)NC(=O)[C@@H]2Cc3ccccc3CN2C(=O)[C@H]2CCCN2C1=O` [compound 15, cyclo(-Trp-^DPhe-Phe-Arg-^DPro-Tic-)] (cyclo(FR[dP][Tic]W[dF])) it was 75.7 ± 41.5 nM.
Consider `N=C(N)NCCC[C@@H]1NC(=O)[C@H](Cc2ccc(O)cc2)NC(=O)[C@@H](Cc2ccccc2)NC(=O)[C@H](Cc2c[nH]c3ccccc23)NC(=O)[C@@H]2Cc3ccccc3CN2C(=O)[C@H]2CCCN2C1=O` [compound 16, cyclo(-Trp-^DPhe-Tyr-Arg-^DPro-Tic-)] (cyclo(R[dP][Tic]W[dF]Y)), for which the EC50 under setting [1] worked out at 326 ± 99.8 nM.
On the same count and under the same terms, next, `N=C(N)NCCC[C@@H]1NC(=O)[C@H](Cc2ccc3ccccc3c2)NC(=O)[C@@H](Cc2ccccc2)NC(=O)[C@H](Cc2c[nH]c3ccccc23)NC(=O)[C@@H]2Cc3ccccc3CN2C(=O)[C@H]2CCCN2C1=O` [compound 17, cyclo(-Trp-^DPhe-2Nal-Arg-^DPro-Tic-)] (cyclo([2Nal]R[dP][Tic]W[dF])): 16.9 ± 7.3 nM.
Turning to `CC[C@H](C)[C@@H]1NC(=O)[C@@H](Cc2ccccc2)NC(=O)[C@H](Cc2c[nH]c3ccccc23)NC(=O)[C@@H]2Cc3ccccc3CN2C(=O)[C@H]2CCCN2C(=O)[C@H](CCCNC(=N)N)NC1=O` [compound 18, cyclo(-Trp-^DPhe-Ile-Arg-^DPro-Tic-)] (cyclo(IR[dP][Tic]W[dF])), under setting [1], the EC50 stood at 148 ± 96.8 nM.
Still for that read-out and setting: next, `N=C(N)NCCC[C@@H]1NC(=O)[C@@H](Cc2ccccc2)NC(=O)[C@H](Cc2c[nH]c3ccccc23)NC(=O)[C@@H]2Cc3ccccc3CN2C(=O)[C@H]2CCCN2C(=O)[C@H](CCCNC(=N)N)NC1=O` [compound 19, cyclo(-Trp-^DPhe-Arg-Arg-^DPro-Tic-)] (cyclo(RR[dP][Tic]W[dF])): 178 ± 102 nM.
Same read-out and setting: in the case of `NCCCC[C@@H]1NC(=O)[C@H](Cc2c[nH]c3ccccc23)NC(=O)[C@@H](Cc2ccccc2)NC(=O)[C@H](Cc2c[nH]c3ccccc23)NC(=O)[C@@H]2Cc3ccccc3CN2C(=O)[C@H]2CCCN2C1=O` [compound 20, cyclo(-Trp-^DPhe-Trp-Lys-^DPro-Tic-)] (cyclo(K[dP][Tic]W[dF]W)) it was 16.5 ± 8 nM.
